{
  "source": "patent US9770451B2",
  "about": "“Composition including ATM inhibitor for reducing cellular senescence and use of the composition” (Samsung Electronics Co., Ltd., priority 2014, dated 2017)",
  "type_in_all_cases": "cell-based, human",
  "key": {"[1]": {"test_system": "progeria senescent fibroblasts (passage 17)", "assay": "Morphological change by microscopy", "details": "CP-466722 0.1 μM", "procedure": "Progeria senescent fibroblasts (Hutchinson-Gilford Progeria Syndrome Skin Fibroblasts, Coriell Cell Repositories, AG03198 B) were inoculated into a DMEM medium containing 10% FBS, 100 units/ml of penicillin, and 100 μg/ml of streptomycin (wherein all antibiotics were purchased from Gibco-BRL, Grand Island, N.Y.), and then, cultured in a 5% CO2 incubator at a temperature of 37° C. When progeria senescent cells were grown to about 85% confluency in a plate, the progeria senescent cells were subjected to subculture. The early subculture was carried out at a split ratio of 1:4, and the late subculture was carried out at a split ratio of 1:2. When the cell doubling time was 14 days, the cells were considered to be progeria senescent fibroblasts (passages 16 to 17).\n[…] The medium was replaced by a fresh medium containing KU-60019 (0.5 μM), once every 4 days. In addition, as a negative control group, the cells were cultured under the same conditions as described above, except that a medium used herein contained DMSO (0.05 (v/v) %).\nIn FIG. 10, a human dermal fibroblast was cultured in the presence of the ATM-kinase inhibitor KU-60019 (0.5 μM), and then, the cell shapes were photographed using a microscope. To provide a better view of the cells formed in a dashed square a, a dashed square a1 was randomly selected, and then, the cells are shown enlarged in the dashed square a1. […]"}, "[2]": {"test_system": "progeria senescent fibroblasts (passage 17)", "assay": "SA-β-galactosidase staining", "details": "CP-466722 0.1 μM, 4 weeks"}, "[3]": {"test_system": "senescent myoblasts (passage 11)", "assay": "ROS measurement (MitoSOX Red)", "details": "CP-466722 0.1 μM", "procedure": "(§1) ROS was measured according to the protocol of the manufacturer using a 0.2 μM MitoSOX™ Red reagent (Invitrogen, M36008). In detail, 2 μL of the reagent that was stored in a 1,000-fold concentration was added to a 2 ml medium sufficiently enough to cover the cultured cells that were attached to a coverslip. While being protected from light, the cells were further incubated at a temperature of 37° C. for 30 minutes. The cultured cells were irradiated with a wavelength of 520 nm by using a FACSCaliber (Beckton Dickinson), and then, measured with radiation emitted from a wavelength of 580 nm. The results were analyzed using Cell Quest 3.2 software (Beckton Dickinson).\nas §1, with “by using an FACSCaliber (Beckton” for “by using a FACSCaliber (Beckton”"}},
  "data": [
    {"smiles": "COc1cc2ncnc(-n3nc(-c4ccccn4)nc3N)c2cc1OC", "note": "[CP-466722, 2-(6,7-dimethoxyquinazolin-4-yl)-5-(pyridin-2-yl)-2H-1,2,4-triazol-3-amine]", "values": [
      {"measurement": "cell number and morphology vs DMSO control", "setting": "[1]", "result": "exist in a great number in the presence of CP-466722 and show a spindle form"},
      {"measurement": "number of cells that express β-galactosidase vs DMSO control", "setting": "[2]", "result": "significantly decreased"},
      {"measurement": "amount of ROS (superoxide) vs control", "setting": "[3]", "result": "significantly decreased"}
    ]}
  ]
}
